What was measured:
[1] = bulk material, reported in Patent Document 2; cited from earlier work
[2] = reported in Patent Document 1; cited from earlier work
[3] = tested on: cancer proliferation; conditions: reported in Patent Document 1; cited from earlier work
[4] = bulk material, reported in Patent Document 2; cited from earlier work; remark: listed apart in the source
[5] = Light stability of compound A solution with various stabilizers: photolyzed substances by HPLC (Experimental Example 1); type: physicochemical; conditions: compound A drug solution 5 mg/mL, D65 lamp/1000 lux, 24 hours, room temperature
Protocol: Each sample was stored upside-down under a condition of D65 lamp/1000 lux in a constantly changing room temperature for 24 hours to evaluate the stability by measuring the increased amounts of photolyzed substances. The measurement of photolyzed substances was carried out using HPLC.
Mobile phase (liquid A): 0.1% trifluoroacetic acid aqueous solution/acetonitrile=9:2, (liquid B) acetonitirle, gradient % (capacity) B: 0% (0 to 60 min)/linear 75% (60 to 80 min)/linear 0% (80 to 100 min), column:TSK-gel ODS-80TsQA, 4.6×150 mm, particle diameter 5 μm (produced by Tosoh Corp.), flow rate: 1 mL/min, column temperature: 40° C., detection: UV 270 nm.

| SMILES | hygroscopicity [1] | toxicity [2] | cancer proliferation-inhibitory activity in vivo [3] | storage stability (humidity, long-term storage) [4] | Photolyzed Substance Amount (%) [5] [%] |
| --- | --- | --- | --- | --- | --- |
| COCCn1c2c([n+](Cc3cnccn3)c1C)C(=O)c1ccccc1C2=O.[Cl-] [chloride of compound A, 1-(2-methoxyethyl)-2-methyl-4,9-dioxo-3-(pyrazin-2-ylmethyl)-4,9-dihydro-1H-naphtho[2,3-d]imidazol-3-ium chloride] | has hygroscopicity | low in toxicity | excellent cancer proliferation-inhibitory activity in vivo | unstable to humidity | – |
| COCCn1c2c([n+](Cc3cnccn3)c1C)C(=O)c1ccccc1C2=O [compound A, 1-(2-methoxyethyl)-2-methyl-4,9-dioxo-3-(pyrazin-2-ylmethyl)-4,9-dihydro-1H-naphtho[2,3-d]imidazol-3-ium] | – | – | – | – | 3.4 |
